Patent publication US10188639B2, “Methods of treating neurological, metabolic, and other disorders using enantiopure deuterium-enriched pioglitazone” (DeuteRx, LLC, priority 2014, dated 2019)
Read-outs that look alike come from different tables or passages of the source.

Experiments:
[1] = Body weight gain in male C57BL/6J mice on a standard diet; format: in vivo, mouse; conditions: twice daily oral gavage for 11 days; overall daily dose h-rac-pio 30 mg/kg, d-S-pio 15 mg/kg, d-R-pio 15 mg/kg; vs. vehicle
Method: Male C57BL/6J mice (about 28 g body weight) were acclimated singly-housed for one week to a reverse light/dark cycle with free access to water and standard maintenance diet. Animals were then handled daily for one week followed by another 7 days of twice daily dosing with vehicle (0.5% methylcellulose in water) by oral gavage. […] Body weights were measured twice daily, prior to each dosing, to adjust individual dosing volumes to actual body weights.

[2] = system: db/db mice; experiment: db/db mouse model of type II diabetes, 10-day daily oral dosing; format: in vivo; conditions: for non-essential fatty acids: 20 mg/kg daily oral gavage, 10 days, compared with h-rac-pio 30 mg/kg; for adiponectin: d-S-pio 20 mg/kg; for decrease of IL-1β / decrease of IL-6 / decrease of TNF-α: d-R-pio 20 mg/kg
Method: Body weights were measured throughout the study. Non-fasting blood glucose (10 μL by tail snip) was measured 4 hours prior to first dose, and animals were sorted and assigned to groups based on this measure. […] A terminal blood sample was collected for determination of serum levels of cholesterol, triglycerides, free fatty acids, adiponectin, serum amyloid A, and cytokines IL-1β, IL-6, TNF-α, and MCP-1, using standard analytical methods. Quantitative results were analyzed by statistical methods using, as appropriate, one- or two-way ANOVA or Kruskal-Wallis tests for differences followed by Sidak's, Dunnett's, or Dunn's post-test to determine differences vs. vehicle-treated control animals. All graphs were generated with GraphPad Prism version 6.0.2 (GraphPad Software, Inc., La Jolla, Calif.).

[3] = Pharmacokinetics in male C57BL/6 mice after oral gavage for 5 days; conditions: day 5, oral gavage daily; for t1/2 (h) d-S: elimination half-life of d-S-pio; for t1/2 (h) h-R: elimination half-life of h-R-pio; for t1/2 (h) h-R / t1/2 (h) h-S: h-rac-pio 30 mg/kg, d-S-pio and d-R-pio 15 mg/kg; for t1/2 (h) h-S: elimination half-life of h-S-pio
Method: (§1) Animals were then euthanized. Plasma was separated by centrifugation and stored at −80° C. until analyzed.
(§2) Concentrations were calculated by interpolation on standard curves generated from mouse plasma samples spiked with known concentrations of the pure analytes.

[4] = plasma
Method: The plasma samples were incubated at 37° C. in duplicate (anticoagulant: K3EDTA). […] Samples were placed at −80° C. until the study was complete. […] The vortexed samples were centrifuged and 50 μL of supernatant was dispensed in a 96-well plate.
The deuterium in both enantiomers, d-S and d-R, can be lost by D/H exchange to give both protonated enantiomers, h-S and h-R with rate constants kDRR, kDRS, kDSR, and kDSS. At the same time, the protonated enantiomers h-S and h-R can exchange with enantiomerization rate constants kRS and kSR. All four compounds can also degrade with potentially different degradation rate constants kdSd, kdRd, khSd, and khRd.
Human and mouse plasma data were analyzed independently. […] Data in each species was analyzed using a stepwise approach.
The step between calculated time points was minimized in order to minimize the local error (proportional to the square of the step size) and the global error (proportional to the step size).

[5] = target: human recombinant monoamine oxidase B (Homo sapiens (Human), UniProt P27338); experiment: Monoamine oxidase B (MAO-B) inhibition, luminescence assay; format: biochemical
Sequence of human recombinant monoamine oxidase B (P27338 whole entry): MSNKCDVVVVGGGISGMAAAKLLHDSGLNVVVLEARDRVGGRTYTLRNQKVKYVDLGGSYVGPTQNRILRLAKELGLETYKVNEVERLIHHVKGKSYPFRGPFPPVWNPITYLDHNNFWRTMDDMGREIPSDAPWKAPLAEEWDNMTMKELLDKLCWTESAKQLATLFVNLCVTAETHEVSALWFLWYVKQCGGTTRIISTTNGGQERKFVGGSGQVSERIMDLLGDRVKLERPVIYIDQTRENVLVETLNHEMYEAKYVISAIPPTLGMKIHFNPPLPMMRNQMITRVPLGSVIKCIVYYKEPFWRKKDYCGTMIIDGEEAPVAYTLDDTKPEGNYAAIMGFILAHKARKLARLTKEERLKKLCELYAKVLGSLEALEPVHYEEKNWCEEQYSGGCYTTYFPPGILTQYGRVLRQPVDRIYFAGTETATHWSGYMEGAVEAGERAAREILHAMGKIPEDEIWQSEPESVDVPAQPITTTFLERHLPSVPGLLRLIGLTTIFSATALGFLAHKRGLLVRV
Method: The mixtures were incubated at 22° C. for 5 min. Substrate (D-luciferin derivative) was added, and then the mixture was incubated at 37° C. for 60 min. The reaction was stopped by addition of the detection reagent containing luciferase. Luminescence was read after standing for 60 min at room temperature.
Results were expressed as a percentage of the luminescence of the control (enzyme+substrate). IC50 values were obtained by fitting experimental data (mean % luminescence as function of concentration) to the Hill equation with variable slope using non-linear regression analysis.

[6] = mouse, in vivo, po, 15 mg/kg
Method: as §1, §2

[7] = 10 days daily oral, h-rac-pio 30 mg/kg, vs. vehicle

For `[2H][C@@]1(Cc2ccc(OCCc3ccc(CC)cn3)cc2)SC(=O)NC1=O` [d-S-pio, (S)-5-({p-[2-(5-Ethyl-2-pyridyl)ethoxy]phenyl}methyl)-(5-^2H)-1,3-thiazolidine-2,4-dione], the “percent body weight difference versus day 1 body weight” value [1] was “statistically significant increase”, the non-essential fatty acids [2] was “a similar trend was observed” and the adiponectin [2, 7] was “significantly increased”. For the same compound, the “t1/2 (h) d-S” value ([3]; 15 mg/kg) was 2.3 h, the “t1/2 (h) h-R” value [3] was 3.2 h and the “t1/2 (h) h-S” value [3] was 3.1 h.

In the case of `[2H]C1(Cc2ccc(OCCc3ccc(CC)cn3)cc2)SC(=O)NC1=O` (racemic) [d-rac-pio, rac-5-({p-[2-(5-Ethyl-2-pyridyl)ethoxy]phenyl}methyl)-(5-^2H)-1,3-thiazolidine-2,4-dione], the “t1/2 of h-R-pio, ln(2)/kRS” value ([4]; human) is reported as 1.6 h, the “t1/2 of h-S-pio, ln(2)/kSR” value ([4]; human) is reported as 1.6 h and the “t1/2 of h-R-pio, ln(2)/kRS” value ([4]; mouse) is reported as 0.9 h. For the same compound, the “t1/2 of h-S-pio, ln(2)/kSR” value ([4]; mouse) was 0.75 h.

With `CCc1ccc(CCOc2ccc(CC3SC(=O)NC3=O)cc2)nc1` (racemic) [h-rac-pio, rac-5-({p-[2-(5-Ethyl-2-pyridyl)ethoxy]phenyl}methyl)-1,3-thiazolidine-2,4-dione, reference compound] the “percent body weight difference versus day 1 body weight” value [1] was “statistically significant increase”, the “decrease of IL-1β” value [2, 7] was “trending” and the “decrease of IL-6” value [2, 7] was “trending”. The “decrease of TNF-α” value [2, 7] was “trending”, the adiponectin [2, 7] was “significantly increased” and the insulin [2, 7] was “significantly decreased”.

In the case of `[2H][C@]1(Cc2ccc(OCCc3ccc(CC)cn3)cc2)SC(=O)NC1=O` [d-R-pio, (R)-5-({p-[2-(5-Ethyl-2-pyridyl)ethoxy]phenyl}methyl)-(5-^2H)-1,3-thiazolidine-2,4-dione], the “percent body weight difference versus day 1 body weight” value [1] is reported as “did not increase percent body weight difference over vehicle”, the “difference in inhibition efficacy between d-R-pio and d-S-pio” value [5] is reported as “greater than 5 fold” and the “tmax (h) d-R” value [6] is reported as 1 h. The non-essential fatty acids [2] was “a similar trend was observed”, the “decrease of IL-1β” value [2, 7] was “trending” and the “decrease of IL-6” value [2, 7] was “trending”. The “decrease of TNF-α” value [2, 7] was “trending”, the “t1/2 (h) d-S” value ([3]; 15 mg/kg) was 0.8 h and the “t1/2 (h) h-R” value [3] was 2.5 h. For the same compound, the “t1/2 (h) h-S” value [3] was 2.5 h, the “AUC0-inf (ng · h/mL) d-R” value ([3]; plasma d-R-pio, 15 mg/kg) was 18892 ng·h/mL and the “Cmax (ng/mL) d-R” value ([3]; plasma d-R-pio, 15 mg/kg) was 6360 ng/mL.
